Results reported in patent US20240166652A1, “MODULATORS OF THE INTEGRATED STRESS PATHWAY” (Calico Life Sciences LLC, priority 2017, published 2024).

Test system: ATF4 luciferase reporter in HEK293T cells
Assay: ATF4-Luc assay (ATF4 luciferase reporter, tunicamycin-treated HEK293T cells)
Format: cell-based, human
Details: Homo sapiens, HEK-293T; HEK293T cells carrying the ATF4 luciferase reporter, 1 μg/mL tunicamycin, 7 hours

Structure (SMILES)	EC50
O=C(COc1ccc(Cl)c(F)c1)NC12CC(NC(=O)COc3ccc(C(F)(F)F)cn3)(C1)C2 [Compound 214, 2-(4-chloro-3-fluorophenoxy)-N-[3-(2-{[5-(trifluoromethyl)pyridin-2-yl]oxy}acetamido)bicyclo[1.1.1]pentan-1-yl]acetamide]	50 to 250 nM
N#Cc1ccc(OCC(=O)NC23CC(NC(=O)COc4ccc(Cl)c(F)c4)(C2)C3)nc1 [Compound 215, 2-(4-chloro-3-fluorophenoxy)-N-(3-{2-[(5-cyanopyridin-2-yl)oxy]acetamido}bicyclo[1.1.1]pentan-1-yl)acetamide]	50 to 250 nM
Cc1cc(OCC(=O)NC23CC(NC(=O)COc4ccc(Cl)c(F)c4)(C2)C3)ncc1Cl [Compound 216, 2-(4-chloro-3-fluorophenoxy)-N-(3-{2-[(5-chloro-4-methylpyridin-2-yl)oxy]acetamido}bicyclo[1.1.1]pentan-1-yl)acetamide]	50 to 250 nM
O=C(COCc1n[nH]c(=O)o1)NC12CC(NC(=O)COc3ccc(Cl)c(F)c3)(C1)C2 [Compound 218, 2-(4-chloro-3-fluorophenoxy)-N-(3-{2-[(5-oxo-4,5-dihydro-1,3,4-oxadiazol-2-yl)methoxy]acetamido}bicyclo[1.1.1]pentan-1-yl)acetamide]	500 to 2000 nM
O=C(COc1ccc(S(F)(F)(F)(F)F)cc1)NC12CC(NC(=O)COc3ccc(Cl)c(F)c3)(C1)C2 [Compound 219, 2-(4-chloro-3-fluorophenoxy)-N-(3-{2-[4-(pentafluoro-λ^6-sulfanyl)phenoxy]acetamido}bicyclo[1.1.1]pentan-1-yl)acetamide]	< 10 nM
Cc1cc(OCC(=O)NC23CC(NC(=O)COc4ccc(Cl)c(F)c4)(C2)C3)cc(C)n1 [Compound 220, 2-(4-chloro-3-fluorophenoxy)-N-(3-{2-[(2,6-dimethylpyridin-4-yl)oxy]acetamido}bicyclo[1.1.1]pentan-1-yl)acetamide]	500 to 2000 nM
CC(C)(C)c1ccc(OCC(=O)NC23CC(NC(=O)COc4ccc(Cl)c(F)c4)(C2)C3)cn1 [Compound 221, 2-[(6-tert-butylpyridin-3-yl)oxy]-N-{3-[2-(4-chloro-3-fluorophenoxy)acetamido]bicyclo[1.1.1]pentan-1-yl}acetamide]	500 to 2000 nM
O=C(COc1ccc(Cl)c(F)c1)NC12CC(NC(=O)COc3cnc(C(F)(F)F)c(Cl)c3)(C1)C2 [Compound 222, 2-(4-chloro-3-fluorophenoxy)-N-[3-(2-{[5-chloro-6-(trifluoromethyl)pyridin-3-yl]oxy}acetamido)bicyclo[1.1.1]pentan-1-yl]acetamide]	< 10 nM
COC(=O)c1cc(OCC(=O)NC23CC(NC(=O)COc4ccc(Cl)c(F)c4)(C2)C3)ccc1Cl [Compound 223, methyl 2-chloro-5-[2-({3-[2-(4-chloro-3-fluorophenoxy)acetamido]-bicyclo[1.1.1]pentan-1-yl}amino)-2-oxoethoxy]benzoate]	500 to 2000 nM
O=C(COc1ccc(Cl)c(F)c1)NC12CC(NC(=O)COc3ccc(Cl)c(CO)c3)(C1)C2 [Compound 224, 2-(4-chloro-3-fluorophenoxy)-N-(3-{2-[4-chloro-3-(hydroxymethyl)phenoxy]-acetamido}bicyclo[1.1.1]pentan-1-yl)acetamide]	50 to 250 nM
O=C(COc1ccc(Cl)nc1)NC12CC(NC(=O)COc3ccc(Cl)c(F)c3)(C1)C2 [Compound 225, 2-(4-chloro-3-fluorophenoxy)-N-(3-{2-[(6-chloropyridin-3-yl)oxy]acetamido}bicyclo[1.1.1]pentan-1-yl)acetamide]	10 to 50 nM
Cc1cc(OCC(=O)NC23CC(NC(=O)COc4ccc(Cl)c(F)c4)(C2)C3)cnc1Cl [Compound 226, 2-(4-chloro-3-fluorophenoxy)-N-(3-{2-[(6-chloro-5-methylpyridin-3-yl)oxy]acetamido}bicyclo[1.1.1]pentan-1-yl)acetamide]	10 to 50 nM
O=C(COc1ccc(Cl)c(F)c1)NC12CC(NC(=O)COc3cnc(Cl)c(F)c3)(C1)C2 [Compound 227, 2-(4-chloro-3-fluorophenoxy)-N-(3-{2-[(6-chloro-5-fluoropyridin-3-yl)oxy]acetamido}bicyclo[1.1.1]pentan-1-yl)acetamide]	< 10 nM
Nc1cc(OCC(=O)NC23CC(NC(=O)COc4ccc(Cl)c(F)c4)(C2)C3)ccc1Cl [Compound 228, 2-(3-amino-4-chlorophenoxy)-N-{3-[2-(4-chloro-3-fluorophenoxy)acetamido]-bicyclo[1.1.1]pentan-1-yl}acetamide]	< 10 nM
Cc1ccc(OCC(=O)NC23CC(NC(=O)COc4ccc(Cl)c(F)c4)(C2)C3)c(N)n1 [Compound 229, 2-[(2-amino-6-methylpyridin-3-yl)oxy]-N-{3-[2-(4-chloro-3-fluorophenoxy)acetamido]bicyclo[1.1.1]pentan-1-yl}acetamide]	500 to 2000 nM
O=C(COc1cncc(C(F)(F)F)c1)NC12CC(NC(=O)COc3ccc(Cl)c(F)c3)(C1)C2 [Compound 230, 2-(4-chloro-3-fluorophenoxy)-N-[3-(2-{[5-(trifluoromethyl)pyridin-3-yl]oxy}acetamido)bicyclo[1.1.1]pentan-1-yl]acetamide]	10 to 50 nM

Structure (SMILES)	EC50
O=C(COc1ccc(Cl)c(F)c1)NC12CC(NC(=O)COc3cnc(Cl)c(C(=O)O)c3)(C1)C2 [Compound 231, 2-chloro-5-[2-({3-[2-(4-chloro-3-fluorophenoxy)acetamido]-bicyclo[1.1.1]pentan-1-yl}amino)-2-oxoethoxy]pyridine-3-carboxylic Acid]	> 2000 nM
Cc1ccc(OCC(=O)NC23CC(NC(=O)COc4ccc(Cl)c(F)c4)(C2)C3)c(C)n1 [Compound 232, 2-(4-chloro-3-fluorophenoxy)-N-(3-{2-[(2,6-dimethylpyridin-3-yl)oxy]acetamido}bicyclo[1.1.1]pentan-1-yl)acetamide]	500 to 2000 nM
O=C(COc1ccnc(C(F)(F)F)c1)NC12CC(NC(=O)COc3ccc(Cl)c(F)c3)(C1)C2 [Compound 233, 2-(4-chloro-3-fluorophenoxy)-N-[3-(2-{[2-(trifluoromethyl)pyridin-4-yl]oxy}acetamido)bicyclo[1.1.1]pentan-1-yl]acetamide]	10 to 50 nM
Cc1cc(OCC(=O)NC23CC(NC(=O)COc4ccc(Cl)c(F)c4)(C2)C3)cnc1C [Compound 234, 2-(4-chloro-3-fluorophenoxy)-N-(3-{2-[(5,6-dimethylpyridin-3-yl)oxy]acetamido}bicyclo[1.1.1]pentan-1-yl)acetamide]	50 to 250 nM
CC(=O)c1ccc(OCC(=O)NC23CC(NC(=O)COc4ccc(Cl)c(F)c4)(C2)C3)cn1 [Compound 235, 2-[(6-acetylpyridin-3-yl)oxy]-N-{3-[2-(4-chloro-3-fluorophenoxy)acetamido]0-bicyclo[1.1.1]pentan-1-yl}acetamide]	50 to 250 nM
Nc1nc(Cl)ccc1OCC(=O)NC12CC(NC(=O)COc3ccc(Cl)c(F)c3)(C1)C2 [Compound 236, 2-[(2-amino-6-chloropyridin-3-yl)oxy]-N-{3-[2-(4-chloro-3-fluorophenoxy)acetamido]bicyclo[1.1.1]pentan-1-yl}acetamide]	10 to 50 nM
Cc1ccc(OCC(=O)NC23CC(NC(=O)COc4ccc(Cl)c(F)c4)(C2)C3)c(Cl)n1 [Compound 237, 2-(4-chloro-3-fluorophenoxy)-N-(3-{2-[(2-chloro-6-methylpyridin-3-yl)oxy]acetamido}bicyclo[1.1.1]pentan-1-yl)acetamide]	50 to 250 nM
N#Cc1ccc(OCC(=O)NC23CC(NC(=O)COc4ccc(Cl)c(F)c4)(C2)C3)cn1 [Compound 238, 2-(4-chloro-3-fluorophenoxy)-N-(3-{2-[(6-cyanopyridin-3-yl)oxy]acetamido}bicyclo[1.1.1]pentan-1-yl)acetamide]	10 to 50 nM
CCc1nc(C)ccc1OCC(=O)NC12CC(NC(=O)COc3ccc(Cl)c(F)c3)(C1)C2 [Compound 239, 2-(4-chloro-3-fluorophenoxy)-N-(3-{2-[(2-ethyl-6-methylpyridin-3-yl)oxy]acetamido}bicyclo[1.1.1]pentan-1-yl)acetamide]	> 2000 nM
O=C(COc1ccc(Cl)c(F)c1)NC12CC(NC(=O)COc3cnc(F)c(Cl)c3)(C1)C2 [Compound 240, 2-(4-chloro-3-fluorophenoxy)-N-(3-{2-[(5-chloro-6-fluoropyridin-3-yl)oxy]acetamido}bicyclo[1.1.1]pentan-1-yl)acetamide]	< 10 nM
COc1ccc(OCC(=O)NC23CC(NC(=O)COc4ccc(Cl)c(F)c4)(C2)C3)cn1 [Compound 241, 2-(4-chloro-3-fluorophenoxy)-N-(3-{2-[(6-methoxypyridin-3-yl)oxy]acetamido}bicyclo[1.1.1]pentan-1-yl)acetamide]	10 to 50 nM
Cc1cc(OCC(=O)NC23CC(NC(=O)COc4ccc(Cl)c(F)c4)(C2)C3)cnc1C#N [Compound 242, 2-(4-chloro-3-fluorophenoxy)-N-(3-{2-[(6-cyano-5-methylpyridin-3-yl)oxy]acetamido}bicyclo[1.1.1]pentan-1-yl)acetamide]	10 to 50 nM
Cc1cc(Cl)ncc1OCC(=O)NC12CC(NC(=O)COc3ccc(Cl)c(F)c3)(C1)C2 [Compound 243, 2-(4-chloro-3-fluorophenoxy)-N-(3-{2-[(6-chloro-4-methylpyridin-3-yl)oxy]acetamido}bicyclo[1.1.1]pentan-1-yl)acetamide]	250 to 500 nM
Cc1cc(OCC(=O)NC23CC(NC(=O)COc4ccc(Cl)c(F)c4)(C2)C3)cnc1F [Compound 244, 2-(4-chloro-3-fluorophenoxy)-N-(3-{2-[(6-fluoro-5-methylpyridin-3-yl)oxy]acetamido}bicyclo[1.1.1]pentan-1-yl)acetamide]	< 10 nM
Cc1ccc(OCC(=O)NC23CC(NC(=O)COc4ccc(Cl)c(F)c4)(C2)C3)c(F)n1 [Compound 245, 2-(4-chloro-3-fluorophenoxy)-N-(3-{2-[(2-fluoro-6-methylpyridin-3-yl)oxy]acetamido}bicyclo[1.1.1]pentan-1-yl)acetamide]	10 to 50 nM
COc1cc(OCC(=O)NC23CC(NC(=O)COc4ccc(Cl)c(F)c4)(C2)C3)cnc1F [Compound 246, 2-(4-chloro-3-fluorophenoxy)-N-(3-{2-[(6-fluoro-5-methoxypyridin-3-yl)oxy]acetamido}bicyclo[1.1.1]pentan-1-yl)acetamide]	10 to 50 nM
